Data published in paper PMC9186362, “Design and biological evaluation of substituted 5,7-dihydro-6H-indolo[2,3-c]quinolin-6-one as novel selective Haspin inhibitors” (Journal of Enzyme Inhibition and Medicinal Chemistry, 2022).

Columns and labels:
Test in all cases: SelectScreen ZLYTE
Format in all cases: biochemical
Details in all cases: ATP Km, read-out: Percentage of inhibition
INSR = INSR (Homo sapiens, UniProt P06213)
How it was run: (§1)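 Selectivity was assessed by testing 1 μM inhibitor on many kinases at once, recording how strongly each enzyme was inhibited in percent.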

PRKCG (PKC gamma) = PRKCG (PKC gamma) (Homo sapiens, UniProt P05129)
How it was run: as §1

CDK17/cyclin Y = CDK17/cyclin Y (Homo sapiens, UniProt Q00537)
How it was run: as §1

CAMK4 (CaMKIV) = molecular target: T1, CAMK4 (CaMKIV) (Homo sapiens, UniProt Q16566)
T1 construct: purchased Life Technologies
How it was run: as §1

MAPKAPK2 = molecular target: T2, MAPKAPK2 (Homo sapiens, UniProt P49137)
T2 construct: purchased Life Technologies
How it was run: as §1

EPHB4 = EPHB4 (Homo sapiens, UniProt P54760)
How it was run: as §1

MYLK2 (skMLCK) = MYLK2 (skMLCK) (Homo sapiens, UniProt Q9H1R3)
How it was run: as §1

GRK7 = molecular target: T3, GRK7 (Homo sapiens, UniProt Q8WTQ7)
T3 construct: purchased Life Technologies (SelectScreen service)
How it was run: as §1

PKN1 (PRK1) = molecular target: T4, PKN1 (PRK1) (Homo sapiens, UniProt Q16512)
T4 construct: purchased Life Technologies
How it was run: as §1

TEK (Tie2) = molecular target: T5, TEK (Tie2) (Homo sapiens, UniProt Q02763)
T5 construct: purchased Life Technologies (SelectScreen Whole Panel service)
How it was run: as §1

MAPK7 (ERK5) = molecular target: T6, MAPK7 (ERK5) (Homo sapiens, UniProt Q13164)
T6 construct: purchased Life Technologies (SelectScreen)
How it was run: as §1

ABL1 T315I = molecular target: T7, ABL1 T315I (Homo sapiens, UniProt P00519, T315I)
T7 construct: purchased Life Technologies (SelectScreen service)
How it was run: as §1

MAP4K4 (HGK) = molecular target: T8, MAP4K4 (HGK) (Homo sapiens, UniProt O95819)
T8 construct: purchased Life Technologies (SelectScreen service)
How it was run: as §1

MARK2 = molecular target: T9, MARK2 (Homo sapiens, UniProt Q7KZI7)
T9 construct: purchased Life Technologies (SelectScreen Whole Panel service)
How it was run: as §1

PIM3 = molecular target: T10, PIM3 (Homo sapiens, UniProt Q86V86)
T10 construct: purchased Life Technologies
How it was run: as §1

RET V804E = molecular target: T11, RET V804E (Homo sapiens, UniProt P07949, V804E)
T11 construct: purchased Life Technologies (SelectScreen service)
How it was run: as §1

TYK2 = molecular target: T12, TYK2 (Homo sapiens, UniProt P29597)
T12 construct: purchased Life Technologies (SelectScreen Whole Panel)
How it was run: as §1

IGF1R = IGF1R (Homo sapiens, UniProt P08069)
How it was run: as §1

SGKL (SGK3) = molecular target: T13, SGKL (SGK3) (Homo sapiens, UniProt Q96BR1)
T13 construct: purchased Life Technologies (SelectScreen)
How it was run: as §1

MET M1250T = molecular target: T14, MET M1250T (Homo sapiens, UniProt P08581, M1250T)
T14 construct: purchased Life Technologies (SelectScreen Whole Panel service)
How it was run: as §1

CAMK1G (CAMKI gamma) = CAMK1G (CAMKI gamma) (Homo sapiens, UniProt Q96NX5)
How it was run: as §1

EGFR (ErbB1) L861Q = molecular target: T15, EGFR (ErbB1) L861Q (Homo sapiens, UniProt P00533, L861Q)
T15 construct: purchased Life Technologies (SelectScreen)
How it was run: as §1

BRSK1 (SAD1) = molecular target: T16, BRSK1 (SAD1) (Homo sapiens, UniProt Q8TDC3)
T16 construct: purchased Life Technologies (SelectScreen Whole Panel service)
How it was run: as §1

EGFR (ErbB1) G719C = molecular target: T17, EGFR (ErbB1) G719C (Homo sapiens, UniProt P00533, G719C)
T17 construct: purchased Life Technologies (SelectScreen)
How it was run: as §1

[1] = molecular target: CSNK1E (CK1 epsilon) R178C (Homo sapiens, UniProt P49674, R178C)
How it was run: as §1

FGFR3 V555M = molecular target: T18, FGFR3 V555M (Homo sapiens, UniProt P22607, V555M)
T18 construct: purchased Life Technologies (SelectScreen Whole Panel service)
How it was run: as §1

NEK2 = molecular target: T19, NEK2 (Homo sapiens, UniProt P51955)
T19 construct: purchased Life Technologies (SelectScreen Whole Panel)
How it was run: as §1

FER = FER (Homo sapiens, UniProt P16591)
How it was run: as §1

CDK5/p35 = molecular target: T20, CDK5/p35 (Homo sapiens, UniProt Q00535)
T20 construct: purchased Life Technologies
How it was run: as §1

AURKC (Aurora C) = molecular target: T21, AURKC (Aurora C) (Homo sapiens, UniProt Q9UQB9)
T21 construct: purchased Life Technologies (SelectScreen Whole Panel service)
How it was run: as §1

PDGFRA D842V = molecular target: T22, PDGFRA D842V (Homo sapiens, UniProt P16234, D842V)
T22 construct: purchased Life Technologies (SelectScreen Whole Panel service)
How it was run: as §1

EPHA5 = molecular target: T23, EPHA5 (Homo sapiens, UniProt P54756)
T23 construct: purchased Life Technologies (SelectScreen Whole Panel service)
How it was run: as §1

RET Y791F = molecular target: T24, RET Y791F (Homo sapiens, UniProt P07949, Y791F)
T24 construct: purchased Life Technologies
How it was run: as §1

TEK (TIE2) Y897S = molecular target: T25, TEK (TIE2) Y897S (Homo sapiens, UniProt Q02763, Y897S)
T25 construct: purchased Life Technologies (SelectScreen Whole Panel)
How it was run: as §1

NEK9 = molecular target: T26, NEK9 (Homo sapiens, UniProt Q8TD19)
T26 construct: purchased Life Technologies
How it was run: as §1

CDC42 BPG (MRCKG) = molecular target: T27, CDC42 BPG (MRCKG) (Homo sapiens, UniProt Q6DT37)
T27 construct: purchased Life Technologies (SelectScreen Whole Panel service)
How it was run: as §1

EGFR (ErbB1) T790M = molecular target: T28, EGFR (ErbB1) T790M (Homo sapiens, UniProt P00533, T790M)
T28 construct: purchased Life Technologies
How it was run: as §1

DYRK4 = molecular target: T29, DYRK4 (Homo sapiens, UniProt Q9NR20)
T29 construct: purchased Life Technologies
How it was run: as §1

T4 sequence (Q16512 whole entry): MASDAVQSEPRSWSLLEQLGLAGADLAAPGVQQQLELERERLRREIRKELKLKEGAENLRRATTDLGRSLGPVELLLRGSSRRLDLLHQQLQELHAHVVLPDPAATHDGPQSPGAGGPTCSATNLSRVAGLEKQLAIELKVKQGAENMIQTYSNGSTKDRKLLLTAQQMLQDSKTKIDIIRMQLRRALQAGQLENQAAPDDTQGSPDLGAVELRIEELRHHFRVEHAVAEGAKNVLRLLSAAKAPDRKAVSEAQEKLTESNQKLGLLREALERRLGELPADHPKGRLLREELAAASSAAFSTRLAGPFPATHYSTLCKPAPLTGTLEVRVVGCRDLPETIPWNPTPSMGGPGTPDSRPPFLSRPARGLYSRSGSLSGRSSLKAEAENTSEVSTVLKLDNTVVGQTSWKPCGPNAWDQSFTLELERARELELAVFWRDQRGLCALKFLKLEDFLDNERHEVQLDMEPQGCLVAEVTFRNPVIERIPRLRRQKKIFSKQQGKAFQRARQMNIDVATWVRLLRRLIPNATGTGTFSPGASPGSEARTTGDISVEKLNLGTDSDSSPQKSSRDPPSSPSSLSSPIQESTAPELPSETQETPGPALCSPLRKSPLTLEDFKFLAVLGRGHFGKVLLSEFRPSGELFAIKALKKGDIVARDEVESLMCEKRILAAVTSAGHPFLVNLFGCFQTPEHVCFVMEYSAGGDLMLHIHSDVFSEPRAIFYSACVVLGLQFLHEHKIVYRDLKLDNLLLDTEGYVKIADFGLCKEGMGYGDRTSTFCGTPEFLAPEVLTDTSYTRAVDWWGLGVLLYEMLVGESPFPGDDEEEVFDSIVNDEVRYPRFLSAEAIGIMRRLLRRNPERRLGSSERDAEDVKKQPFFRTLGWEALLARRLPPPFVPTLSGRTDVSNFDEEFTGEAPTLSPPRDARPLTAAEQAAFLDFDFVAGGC
T9 sequence (Q7KZI7 whole entry): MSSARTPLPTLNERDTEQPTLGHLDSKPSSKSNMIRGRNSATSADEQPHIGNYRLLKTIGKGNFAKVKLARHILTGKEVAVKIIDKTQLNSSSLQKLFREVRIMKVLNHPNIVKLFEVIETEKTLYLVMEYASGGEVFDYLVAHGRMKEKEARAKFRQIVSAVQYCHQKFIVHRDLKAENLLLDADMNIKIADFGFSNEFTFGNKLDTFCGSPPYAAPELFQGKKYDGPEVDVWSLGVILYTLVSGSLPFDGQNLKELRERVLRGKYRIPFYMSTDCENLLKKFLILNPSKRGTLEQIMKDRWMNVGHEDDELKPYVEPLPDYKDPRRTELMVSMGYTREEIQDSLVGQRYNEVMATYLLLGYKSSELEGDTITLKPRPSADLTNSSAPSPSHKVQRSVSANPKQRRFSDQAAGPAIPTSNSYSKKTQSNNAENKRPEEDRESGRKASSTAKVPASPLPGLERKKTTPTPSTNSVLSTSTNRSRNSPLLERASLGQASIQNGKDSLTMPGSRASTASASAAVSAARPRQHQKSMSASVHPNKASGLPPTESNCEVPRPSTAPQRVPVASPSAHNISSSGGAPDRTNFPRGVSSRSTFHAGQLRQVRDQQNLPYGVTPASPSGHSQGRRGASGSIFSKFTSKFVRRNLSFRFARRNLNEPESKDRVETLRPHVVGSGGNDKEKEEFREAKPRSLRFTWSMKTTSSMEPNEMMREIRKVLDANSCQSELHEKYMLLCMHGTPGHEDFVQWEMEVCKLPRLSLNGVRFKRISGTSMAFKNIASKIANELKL
T3 sequence (Q8WTQ7 whole entry): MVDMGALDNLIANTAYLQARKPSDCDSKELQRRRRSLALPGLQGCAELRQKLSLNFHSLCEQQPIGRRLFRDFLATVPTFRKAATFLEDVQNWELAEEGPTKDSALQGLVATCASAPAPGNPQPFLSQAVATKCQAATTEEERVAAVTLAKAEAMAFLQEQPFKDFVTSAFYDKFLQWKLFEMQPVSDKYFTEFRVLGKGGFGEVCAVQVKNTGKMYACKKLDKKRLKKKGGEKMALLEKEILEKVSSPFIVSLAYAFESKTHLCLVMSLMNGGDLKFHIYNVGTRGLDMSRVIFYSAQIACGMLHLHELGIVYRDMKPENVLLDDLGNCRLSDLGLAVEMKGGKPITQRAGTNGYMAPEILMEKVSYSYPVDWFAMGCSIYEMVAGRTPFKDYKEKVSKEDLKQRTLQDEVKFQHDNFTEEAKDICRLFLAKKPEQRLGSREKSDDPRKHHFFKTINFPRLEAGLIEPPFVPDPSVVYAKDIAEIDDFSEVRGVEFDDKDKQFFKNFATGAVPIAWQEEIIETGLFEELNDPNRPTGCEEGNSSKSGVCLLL
T2 sequence (P49137 whole entry): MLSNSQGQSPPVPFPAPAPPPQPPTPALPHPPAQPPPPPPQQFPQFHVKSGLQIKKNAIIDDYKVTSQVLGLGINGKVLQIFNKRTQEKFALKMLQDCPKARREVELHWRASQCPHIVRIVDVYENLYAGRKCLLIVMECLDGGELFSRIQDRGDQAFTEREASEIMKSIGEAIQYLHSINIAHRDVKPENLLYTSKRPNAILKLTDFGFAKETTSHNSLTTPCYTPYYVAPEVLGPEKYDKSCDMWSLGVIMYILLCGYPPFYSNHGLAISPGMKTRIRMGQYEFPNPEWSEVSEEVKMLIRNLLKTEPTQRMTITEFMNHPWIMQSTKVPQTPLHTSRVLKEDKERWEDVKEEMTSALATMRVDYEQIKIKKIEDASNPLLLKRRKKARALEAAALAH
T24 sequence (P07949 29-1114 Y791F): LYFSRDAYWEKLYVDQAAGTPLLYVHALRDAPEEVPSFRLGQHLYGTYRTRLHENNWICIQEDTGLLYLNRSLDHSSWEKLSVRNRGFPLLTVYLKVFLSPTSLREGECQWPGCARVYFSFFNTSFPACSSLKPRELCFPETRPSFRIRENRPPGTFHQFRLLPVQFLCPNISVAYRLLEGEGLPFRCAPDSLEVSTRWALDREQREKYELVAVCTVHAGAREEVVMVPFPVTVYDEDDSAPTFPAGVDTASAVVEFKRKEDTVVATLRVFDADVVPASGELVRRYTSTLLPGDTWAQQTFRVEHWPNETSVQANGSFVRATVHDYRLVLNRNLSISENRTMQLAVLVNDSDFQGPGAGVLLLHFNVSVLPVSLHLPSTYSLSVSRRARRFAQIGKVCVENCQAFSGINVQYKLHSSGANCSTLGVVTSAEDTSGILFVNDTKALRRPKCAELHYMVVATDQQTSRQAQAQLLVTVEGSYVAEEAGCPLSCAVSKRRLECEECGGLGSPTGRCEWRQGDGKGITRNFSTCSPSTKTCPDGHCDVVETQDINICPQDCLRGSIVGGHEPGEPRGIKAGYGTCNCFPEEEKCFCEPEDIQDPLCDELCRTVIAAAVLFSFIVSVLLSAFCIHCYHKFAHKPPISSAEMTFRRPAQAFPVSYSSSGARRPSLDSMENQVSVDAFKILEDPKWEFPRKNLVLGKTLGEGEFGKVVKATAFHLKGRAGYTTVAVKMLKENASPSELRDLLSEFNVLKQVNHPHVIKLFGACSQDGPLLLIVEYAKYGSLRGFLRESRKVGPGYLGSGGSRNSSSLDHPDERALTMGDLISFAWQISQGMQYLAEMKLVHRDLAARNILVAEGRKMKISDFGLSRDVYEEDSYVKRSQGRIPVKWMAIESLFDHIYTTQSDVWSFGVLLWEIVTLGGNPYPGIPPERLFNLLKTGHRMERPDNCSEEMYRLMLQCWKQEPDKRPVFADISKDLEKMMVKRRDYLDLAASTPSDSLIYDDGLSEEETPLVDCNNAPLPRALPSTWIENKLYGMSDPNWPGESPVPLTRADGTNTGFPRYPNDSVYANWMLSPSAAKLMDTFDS
CAMK1G (CAMKI gamma), sequence (Q96NX5 whole entry): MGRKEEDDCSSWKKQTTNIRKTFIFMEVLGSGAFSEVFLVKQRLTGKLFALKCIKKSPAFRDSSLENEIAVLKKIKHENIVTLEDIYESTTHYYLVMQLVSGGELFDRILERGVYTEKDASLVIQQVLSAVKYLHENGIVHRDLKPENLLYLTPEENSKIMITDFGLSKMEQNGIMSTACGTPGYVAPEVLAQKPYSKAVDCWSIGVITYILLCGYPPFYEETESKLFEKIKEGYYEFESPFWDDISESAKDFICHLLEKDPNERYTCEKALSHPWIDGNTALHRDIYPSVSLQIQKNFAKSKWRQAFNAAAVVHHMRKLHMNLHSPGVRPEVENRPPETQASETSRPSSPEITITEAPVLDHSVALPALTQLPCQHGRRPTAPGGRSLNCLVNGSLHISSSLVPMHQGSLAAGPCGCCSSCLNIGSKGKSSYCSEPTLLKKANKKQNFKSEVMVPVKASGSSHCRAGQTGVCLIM
CSNK1E (CK1 epsilon) R178C, sequence (P49674 whole entry R178C): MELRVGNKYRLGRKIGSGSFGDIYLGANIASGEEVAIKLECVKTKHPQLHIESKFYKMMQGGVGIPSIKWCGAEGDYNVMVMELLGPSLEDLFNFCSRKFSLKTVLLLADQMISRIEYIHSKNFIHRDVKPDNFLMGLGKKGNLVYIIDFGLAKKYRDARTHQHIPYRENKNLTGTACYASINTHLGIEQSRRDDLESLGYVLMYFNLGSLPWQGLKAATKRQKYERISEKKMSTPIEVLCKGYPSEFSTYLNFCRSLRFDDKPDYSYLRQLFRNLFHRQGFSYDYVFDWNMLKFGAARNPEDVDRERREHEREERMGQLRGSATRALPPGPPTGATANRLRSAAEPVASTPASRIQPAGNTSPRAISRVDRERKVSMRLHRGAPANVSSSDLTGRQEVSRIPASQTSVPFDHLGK
T11 sequence (P07949 29-1114 V804E): as the sequence (P07949 29-1114 Y791F) above, with F763Y, V776E counted along it

Molecule `COc1ccc2[nH]c3c(=O)[nH]c4ccc(O)cc4c3c2c1` [Compound 55, 2-Hydroxy-10-methoxy-5,7-dihydro-6H-indolo[2,3-c]quinolin-6-one] has an inhibition at 1 µM (INSR) of 21%, an inhibition at 1 µM (PRKCG (PKC gamma)) of 14% and an inhibition at 1 µM (CDK17/cyclin Y) of 20%. It also gave an inhibition at 1 µM (CAMK4 (CaMKIV)) of 41%, an inhibition at 1 µM (MAPKAPK2) of 2% and an inhibition at 1 µM (EPHB4) of 21%. It also gave an inhibition at 1 µM (MYLK2 (skMLCK)) of 61%, an inhibition at 1 µM (GRK7) of 74% and an inhibition at 1 µM (PKN1 (PRK1)) of 4%. For the same molecule, the inhibition at 1 µM (TEK (Tie2)) was 13%, the inhibition at 1 µM (MAPK7 (ERK5)) was 8% and the inhibition at 1 µM (ABL1 T315I) was 24%. For the same molecule, the inhibition at 1 µM (MAP4K4 (HGK)) was 81%, the inhibition at 1 µM (MARK2) was 12% and the inhibition at 1 µM (PIM3) was 33%. For the same molecule, the inhibition at 1 µM (RET V804E) was 86%, the inhibition at 1 µM (TYK2) was 51% and the inhibition at 1 µM (IGF1R) was 13%. For the same molecule, the inhibition at 1 µM (SGKL (SGK3)) was 9%, the inhibition at 1 µM (MET M1250T) was 12% and the inhibition at 1 µM (CAMK1G (CAMKI gamma)) was 14%. For the same molecule, the inhibition at 1 µM (EGFR (ErbB1) L861Q) was 9%, the inhibition at 1 µM (BRSK1 (SAD1)) was 45% and the inhibition at 1 µM (EGFR (ErbB1) G719C) was 8%. It also gave an inhibition at 1 µM [1] of 70%, an inhibition at 1 µM (FGFR3 V555M) of 46% and an inhibition at 1 µM (NEK2) of -11%. It also gave an inhibition at 1 µM (FER) of 56%, an inhibition at 1 µM (CDK5/p35) of 32% and an inhibition at 1 µM (AURKC (Aurora C)) of 17%. For the same molecule, the inhibition at 1 µM (PDGFRA D842V) was 49%, the inhibition at 1 µM (EPHA5) was 18% and the inhibition at 1 µM (RET Y791F) was 96%. The inhibition at 1 µM (TEK (TIE2) Y897S) was 1%, the inhibition at 1 µM (NEK9) was 4% and the inhibition at 1 µM (CDC42 BPG (MRCKG)) was 12%. It also gave an inhibition at 1 µM (EGFR (ErbB1) T790M) of 30% and an inhibition at 1 µM (DYRK4) of 42%.
